# Assay results from ChEMBL document CHEMBL1201862, “PubChem BioAssay data set” (2004).
#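 Protocol summary: plate cells (96-well), add compound at 5 concentrations, incubate 48 h, interpolate endpoints linearly. GI50: concentration for 50% inhibition of growth.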 Calls of active or inactive are those of the source. Rule as the data show it: active = GI50 up to about 1.1 µM and inactive = higher.
# Assays:
# Test in all cases: DTP human tumour cell line panel, 48 h
# NCI-H23 = tested on: NCI-H23
# NCI-H522 = tested on: NCI-H522
# SK-OV-3 = tested on: SK-OV-3
# NCI-H460 = tested on: NCI-H460
# M19-MEL = tested on: M19-MEL
# LOX IMVI = tested on: LOX IMVI
# COLO 205 = tested on: COLO 205
# EKVX = tested on: EKVX
# OVCAR-8 = tested on: OVCAR-8
# M14 = tested on: M14
# CCRF-CEM = tested on: CCRF-CEM
# HCT-116 = tested on: HCT-116
# IGROV-1 = tested on: IGROV-1
# TK-10 = tested on: TK-10
# UO-31 = tested on: UO-31
# MOLT-4 = tested on: MOLT-4
# 786-0 = tested on: 786-0
# NCI-H226 = tested on: NCI-H226
# SN12C = tested on: SN12C
# SK-MEL-28 = tested on: SK-MEL-28
# RPMI-8226 = tested on: RPMI-8226
# SW-620 = tested on: SW-620
# OVCAR-4 = tested on: OVCAR-4
# HT-29 = tested on: HT-29
# U-251 = tested on: U-251
# SF-295 = tested on: SF-295
# SR = tested on: SR
# SF-539 = tested on: SF-539
# ACHN = tested on: ACHN
# SNB-78 = tested on: SNB-78
# K562 = tested on: K562
# HOP-92 = tested on: HOP-92
# HL-60 = tested on: HL-60
# HCC 2998 = tested on: HCC 2998
# OVCAR-3 = tested on: OVCAR-3
# HOP-62 = tested on: HOP-62
# SNB-19 = tested on: SNB-19
# OVCAR-5 = tested on: OVCAR-5
# DLD-1 = tested on: DLD-1
# UACC-257 = tested on: UACC-257
# A549 = tested on: A549
# KM-20L2 = tested on: KM-20L2
# A498 = tested on: A498
# LXFL 529 = tested on: LXFL 529
# Malme-3M = tested on: Malme-3M
# UACC-62 = tested on: UACC-62
# DMS-114 = tested on: DMS-114
# SK-MEL-5 = tested on: SK-MEL-5
# KM12 = tested on: KM12
# SF-268 = tested on: SF-268
# SNB-75 = tested on: SNB-75
# RXF 393 = tested on: RXF 393
# CAKI-1 = tested on: CAKI-1
# HCT-15 = tested on: HCT-15
# SK-MEL-2 = tested on: SK-MEL-2
# HOP-18 = tested on: HOP-18
smiles,measurement,setting,value
C[C@H]1C=C2C(=O)O[C@H]3CC[C@@H](C1)[C@@]23O,GI50,NCI-H23,2.8 µM (inactive)
same,GI50,NCI-H522,2.51 µM (inactive)
same,GI50,SK-OV-3,8 µM (inactive)
same,GI50,NCI-H460,6 µM (inactive)
same,GI50,M19-MEL,3.76 µM (inactive)
same,GI50,LOX IMVI,2.55 µM (inactive)
same,GI50,COLO 205,3.26 µM (inactive)
same,GI50,EKVX,2.67 µM (inactive)
same,GI50,OVCAR-8,3.39 µM (inactive)
same,GI50,M14,3.83 µM (inactive)
same,GI50,CCRF-CEM,2.01 µM (inactive)
same,GI50,HCT-116,2.75 µM (inactive)
same,GI50,IGROV-1,6.03 µM (inactive)
same,GI50,TK-10,4.68 µM (inactive)
same,GI50,UO-31,18.2 µM (inactive)
same,GI50,MOLT-4,1.21 µM (inactive)
same,GI50,786-0,3.28 µM (inactive)
same,GI50,NCI-H226,12.5 µM (inactive)
same,GI50,SN12C,2.4 µM (inactive)
same,GI50,SK-MEL-28,4.07 µM (inactive)
same,GI50,RPMI-8226,29.6 µM (inactive)
same,GI50,SW-620,3.28 µM (inactive)
same,GI50,OVCAR-4,10.3 µM (inactive)
same,GI50,HT-29,3.97 µM (inactive)
same,GI50,U-251,6.44 µM (inactive)
same,GI50,SF-295,4.4 µM (inactive)
same,GI50,SR,0.233 µM (active)
same,GI50,SF-539,2.03 µM (inactive)
same,GI50,ACHN,4.97 µM (inactive)
same,GI50,SNB-78,2.82 µM (inactive)
same,GI50,K562,2.37 µM (inactive)
same,GI50,HOP-92,5.25 µM (inactive)
same,GI50,HL-60,2.12 µM (inactive)
same,GI50,HCC 2998,13.8 µM (inactive)
same,GI50,OVCAR-3,5.38 µM (inactive)
same,GI50,HOP-62,> 10 µM (inactive)
same,GI50,SNB-19,16.3 µM (inactive)
same,GI50,OVCAR-5,4.33 µM (inactive)
same,GI50,DLD-1,2.7 µM (inactive)
same,GI50,UACC-257,10.3 µM (inactive)
same,GI50,A549,11.2 µM (inactive)
same,GI50,KM-20L2,4.91 µM (inactive)
same,GI50,A498,10.6 µM (inactive)
same,GI50,LXFL 529,2.93 µM (inactive)
same,GI50,Malme-3M,7.03 µM (inactive)
same,GI50,UACC-62,3.18 µM (inactive)
same,GI50,DMS-114,2.62 µM (inactive)
same,GI50,SK-MEL-5,4.13 µM (inactive)
same,GI50,KM12,2.92 µM (inactive)
same,GI50,SF-268,3.13 µM (inactive)
same,GI50,SNB-75,5.87 µM (inactive)
same,GI50,RXF 393,2.79 µM (inactive)
same,GI50,CAKI-1,3.72 µM (inactive)
same,GI50,HCT-15,3.65 µM
same,GI50,SK-MEL-2,2.71 µM (inactive)
same,GI50,HOP-18,3.18 µM (inactive)
